Laboratory results from patent US9221756B2, “Pyrrole derivatives” (priority 2011, dated 2015).

Key:
pneumolysin [1] = molecular target: T1, pneumolysin (Streptococcus pneumoniae serotype 2, UniProt Q04IN8); assay: Inhibition of the haemolytic activity of pneumolysin (sheep erythrocytes); format: cell-based; details: IC50, inhibition of pneumolysin-induced haemolysis of sheep erythrocytes
Streptolysin O (SLO) = molecular target: T2, Streptolysin O (SLO) (Streptococcus pyogenes serotype M3, UniProt P0DF97); assay: Inhibition of the haemolytic activity of Streptolysin O; format: cell-based, Group A Streptococci; details: toxin SLO; haemolysis assay protocol of Section A
T2 sequence (P0DF97 34-571): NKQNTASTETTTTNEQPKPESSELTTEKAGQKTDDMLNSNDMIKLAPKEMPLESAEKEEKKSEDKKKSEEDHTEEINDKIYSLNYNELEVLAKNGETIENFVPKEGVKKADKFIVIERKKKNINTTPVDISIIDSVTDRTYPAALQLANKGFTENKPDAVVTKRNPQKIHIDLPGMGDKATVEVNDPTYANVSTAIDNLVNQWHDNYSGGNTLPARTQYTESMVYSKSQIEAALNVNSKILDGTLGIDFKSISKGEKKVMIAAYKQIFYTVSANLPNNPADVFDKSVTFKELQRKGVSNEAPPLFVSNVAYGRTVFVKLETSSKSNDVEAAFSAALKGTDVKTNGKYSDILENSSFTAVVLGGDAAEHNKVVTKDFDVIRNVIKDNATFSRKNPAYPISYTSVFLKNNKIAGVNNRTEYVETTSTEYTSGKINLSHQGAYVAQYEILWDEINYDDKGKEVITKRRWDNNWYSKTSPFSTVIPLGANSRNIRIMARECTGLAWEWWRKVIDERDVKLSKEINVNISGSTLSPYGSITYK

Perfringolysin O (PFO) = Perfringolysin O (PFO) (Clostridium perfringens, UniProt P0C2E9); assay: cell-based
Listeriolysin O (LLO) = Listeriolysin O (LLO) (Listeria monocytogenes serovar 1/2a, UniProt P13128); assay: Inhibition of the haemolytic activity of Listeriolysin O; format: cell-based; details: toxin LLO; haemolysis assay protocol of Section A
Anthrolysin O (ALO) = Anthrolysin O (ALO) (Bacillus anthracis, UniProt A0A6L7HHW7); assay: cell-based
Suilysin (SLY) = Suilysin (SLY) (Streptococcus suis, UniProt Q55996); assay: Inhibition of the haemolytic activity of Suilysin; format: cell-based; details: toxin SLY; haemolysis assay protocol of Section A
pneumolysin [2] = molecular target: T1, pneumolysin; assay: Inhibition of pneumolysin-induced lactate dehydrogenase release from A549 cells; format: cell-based
pneumolysin [3] = molecular target: T1, pneumolysin; assay: Ex vivo meningitis assay: effect of pneumolysin on ciliary function of cultured ependymal cells; format: cell-based; details: rat ependymal cells
Description: (§1) The ependymal ciliated cells line the cerebral ventricles of the brain and the central canal of the spinal cord and are covered with cilia responsible for the circulation of the cerebrospinal fluid (CSF) around the central nervous system. This layer acts as a selective brain barrier to and from the cerebrospinal fluid and plays a role in controlling the CSF volume. […] This model is based on culturing and differentiating ciliated ependymal cells from neonate rat brains, which recreate the in vivo situation, where cells lining the brain ventricles, are exposed to S. pneumoniae and its toxic products.
(§2) Ependymal cell cultures were prepared by the method previously described [Microb. Pathog. (1999) 27 303-309]. Tissue culture trays were coated with bovine fibronectin and incubated at 37° C. in 5% (v/v) CO2 for 2 h before use. […]
(§3) After approximately two weeks, the cells were fully ciliated and ready for experiments. […] Beating cilia were recorded before and after exposure over 30 min, with a digital high-speed video camera at a rate of 500 frames/s. The recorded video sequences were played back at reduced frame rates and the ciliary beat frequency (CBF) was determined by the following equation: […]

[4] = molecular target: T3, S. pneumoniae cell lysate containing native pneumolysin (Streptococcus pneumoniae serotype 2, UniProt Q04IN8); assay: Ex vivo meningitis assay: effect of bacterial lysate on ciliary function of cultured ependymal cells; format: cell-based; details: rat ependymal cells; lysate from penicillin-lysed S. pneumoniae; FIG. 2.B
T3 construct: S. pneumoniae cell lysate containing native pneumolysin; endogenous in cells
Description: as §1, §2, §3

[5] = test system: Human lung epithelial cells (A549); details: concentrations tested, up to approximately 150 times the therapeutic IC50 value
[6] = mice receiving the compound alone; highest concentration of UL1-012 (16 mg/kg i.v. every 6 h)
[7] = test system: Streptococcus pneumoniae strain D39; assay: In vivo efficacy assay using a mouse pneumonia model; details: MF1 mice
[8] = Conversion of prodrug derivatives to active inhibitors in mouse plasma; format: in vitro ADME; details: 37° C., 10 μM start, prodrug remaining; for [ ] (μM) t0 min. Prodrug: 0 min; for [ ] (μM) t15 min. Prodrug: 15 min; for [ ] (μM) t30 min. Prodrug: 30 min; for [ ] (μM) t60 min. Prodrug: 60 min; for [ ] (μM) t120 min. Prodrug: 120 min
Experimental: (§4) The samples were then analysed by LC-MS/MS to obtain the amount of active compound appearing and prodrug derivative remaining over time. The mouse plasma assay system is considered to be a good model for human behaviour. Nevertheless data obtained in a human plasma assay system was obtained in some cases.
(§5) Prodrug derivatives were assessed in the mouse and human plasma stability assay at a concentration of 10 μM. Test compounds were diluted in DMSO to a final stock concentration of 10 mM. For the purpose of the assay, the stocks prepared were further diluted in DMSO to a concentration of 400 μM and […] were added to 195 μl of mouse or human plasma (pH 7.4) and then incubated at 37° C. The final concentration of DMSO in the plate was 2.5% (v/v). Reactions were terminated at 0, 15, 30, 60 and 120 min after incubation by adding 400 μl of acetonitrile containing 0.55 μM metoprolol and 1% (v/v) formic acid. The plate was then centrifuged at 3000 rpm, for 45 min, at 4° C. 80 μl of supernatant were transferred into a conical bottom 96 well glass coated plate. 40 μl of water were added prior to analysis for prodrug derivative and active species by LC-MS/MS. This assay was performed by a contract research organisation, Cyprotex Discovery Limited, UK, at the request of the inventors at Leicester.
(§6) (1) The active compound was quantified using a 6 point calibration curve prepared in deactivated mouse and human plasma. (2) The percentage of parent compound remaining at each time point relative to 0 min sample was calculated from LC-MS/MS peak area ratios (compound peak area/internal standard peak area). This percentage was then used to determine the concentration of the parent compound at each time point in reference to the starting concentration (10 μM) at time 0 min.

[9] = format: in vitro ADME; details: human plasma, 37° C., 10 μM start, prodrug remaining; for [ ] (μM) t0 min. Prodrug (Human): 0 min; for [ ] (μM) t15 min. Prodrug (Human): 15 min; for [ ] (μM) t30 min. Prodrug (Human): 30 min; for [ ] (μM) t60 min. Prodrug (Human): 60 min; for [ ] (μM) t120 min. Prodrug (Human): 120 min
Experimental: as §4, §5, §6

T1 sequence (Q04IN8 whole entry): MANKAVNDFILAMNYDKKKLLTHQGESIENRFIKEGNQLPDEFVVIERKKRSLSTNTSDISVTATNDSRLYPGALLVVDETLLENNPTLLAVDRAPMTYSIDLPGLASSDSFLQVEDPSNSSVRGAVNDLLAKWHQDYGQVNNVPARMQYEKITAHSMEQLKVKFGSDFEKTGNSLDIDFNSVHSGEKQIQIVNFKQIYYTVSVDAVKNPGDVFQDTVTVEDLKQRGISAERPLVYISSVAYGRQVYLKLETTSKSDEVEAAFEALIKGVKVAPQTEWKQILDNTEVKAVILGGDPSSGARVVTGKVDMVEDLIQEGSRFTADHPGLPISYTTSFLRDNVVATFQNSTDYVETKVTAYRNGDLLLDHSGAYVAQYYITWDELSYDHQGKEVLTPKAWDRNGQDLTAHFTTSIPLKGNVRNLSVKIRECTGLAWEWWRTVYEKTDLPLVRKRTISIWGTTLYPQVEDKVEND
Chain of Suilysin (SLY) (Q55996 28-497 limits assumed): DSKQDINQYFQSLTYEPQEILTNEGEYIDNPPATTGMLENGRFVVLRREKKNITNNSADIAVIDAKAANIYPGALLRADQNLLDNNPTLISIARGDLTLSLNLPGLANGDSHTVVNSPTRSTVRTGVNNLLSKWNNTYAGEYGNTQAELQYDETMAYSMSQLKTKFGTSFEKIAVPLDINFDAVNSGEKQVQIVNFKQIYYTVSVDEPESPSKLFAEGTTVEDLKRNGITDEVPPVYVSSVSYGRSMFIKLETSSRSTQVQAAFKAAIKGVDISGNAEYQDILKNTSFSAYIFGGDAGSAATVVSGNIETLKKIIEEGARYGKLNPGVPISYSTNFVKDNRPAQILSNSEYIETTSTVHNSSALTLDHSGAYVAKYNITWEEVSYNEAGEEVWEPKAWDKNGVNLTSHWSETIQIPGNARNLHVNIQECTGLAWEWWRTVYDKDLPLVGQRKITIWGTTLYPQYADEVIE
Chain of Perfringolysin O (PFO) (P0C2E9 29-500 limits assumed): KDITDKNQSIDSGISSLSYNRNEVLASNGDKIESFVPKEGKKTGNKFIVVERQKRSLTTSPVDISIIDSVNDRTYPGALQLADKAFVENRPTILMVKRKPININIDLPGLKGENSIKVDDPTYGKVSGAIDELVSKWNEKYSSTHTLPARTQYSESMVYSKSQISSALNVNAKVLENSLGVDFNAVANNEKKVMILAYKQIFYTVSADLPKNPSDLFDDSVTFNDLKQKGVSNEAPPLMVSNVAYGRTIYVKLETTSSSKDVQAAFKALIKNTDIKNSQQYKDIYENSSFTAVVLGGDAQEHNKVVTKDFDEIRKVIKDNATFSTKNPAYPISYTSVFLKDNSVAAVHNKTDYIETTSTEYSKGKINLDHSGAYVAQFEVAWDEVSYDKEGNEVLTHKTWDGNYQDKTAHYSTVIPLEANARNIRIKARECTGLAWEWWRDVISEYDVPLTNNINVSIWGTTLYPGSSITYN
Chain of Listeriolysin O (LLO) (P13128 25-529): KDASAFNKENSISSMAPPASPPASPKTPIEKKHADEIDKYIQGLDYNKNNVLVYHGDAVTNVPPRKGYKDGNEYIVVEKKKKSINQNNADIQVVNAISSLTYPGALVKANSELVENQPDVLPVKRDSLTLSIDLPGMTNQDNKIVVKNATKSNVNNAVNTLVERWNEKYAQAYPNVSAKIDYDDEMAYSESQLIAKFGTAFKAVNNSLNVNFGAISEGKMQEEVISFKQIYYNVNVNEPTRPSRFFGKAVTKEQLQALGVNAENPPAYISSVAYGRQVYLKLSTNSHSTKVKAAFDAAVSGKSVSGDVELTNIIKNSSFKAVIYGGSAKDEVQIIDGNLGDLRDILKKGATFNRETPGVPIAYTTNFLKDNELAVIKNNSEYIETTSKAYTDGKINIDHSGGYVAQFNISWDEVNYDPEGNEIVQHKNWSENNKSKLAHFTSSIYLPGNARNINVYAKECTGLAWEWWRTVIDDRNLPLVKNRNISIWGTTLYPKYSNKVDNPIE
Chain of Anthrolysin O (ALO) (A0A6L7HHW7 35-512 limits assumed): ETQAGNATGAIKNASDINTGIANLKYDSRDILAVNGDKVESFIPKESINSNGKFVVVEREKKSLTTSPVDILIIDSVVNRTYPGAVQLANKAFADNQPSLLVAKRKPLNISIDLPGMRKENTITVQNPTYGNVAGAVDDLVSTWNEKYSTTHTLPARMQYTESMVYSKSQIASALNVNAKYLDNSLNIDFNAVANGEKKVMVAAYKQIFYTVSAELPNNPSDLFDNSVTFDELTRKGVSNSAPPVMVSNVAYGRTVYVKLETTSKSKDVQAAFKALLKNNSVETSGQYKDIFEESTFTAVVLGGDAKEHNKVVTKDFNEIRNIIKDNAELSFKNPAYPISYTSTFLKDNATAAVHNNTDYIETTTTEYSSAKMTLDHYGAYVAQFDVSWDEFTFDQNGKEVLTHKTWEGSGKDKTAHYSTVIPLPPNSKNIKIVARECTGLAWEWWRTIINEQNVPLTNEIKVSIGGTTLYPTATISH
T3 sequence (Q04IN8 whole entry): as the sequence (Q04IN8 whole entry) above

Compound | IC50 (pneumolysin [1]; class symbols of Table 1) [µM] | IC50 (pneumolysin [1]; specific values) [µM] | IC50 (Streptolysin O (SLO)) [µM] | IC50 (Perfringolysin O (PFO)) [µM] | IC50 (Listeriolysin O (LLO)) [µM] | IC50 (Anthrolysin O (ALO)) [µM] | IC50 (Suilysin (SLY)) [µM] | [ ] (μM) t0 min. Prodrug [8] [µM] | [ ] (μM) t15 min. Prodrug [8] [µM] | [ ] (μM) t30 min. Prodrug [8] [µM] | [ ] (μM) t60 min. Prodrug [8] [µM] | [ ] (μM) t120 min. Prodrug [8] [µM] | [ ] (μM) t0 min. Prodrug (Human) [9] [µM] | [ ] (μM) t15 min. Prodrug (Human) [9] [µM] | [ ] (μM) t30 min. Prodrug (Human) [9] [µM] | [ ] (μM) t60 min. Prodrug (Human) [9] [µM] | [ ] (μM) t120 min. Prodrug (Human) [9] [µM] | also measured
CCOC(=O)c1c(O)c(O)c(C(=O)N(C)C)n1-c1ccc(OC)cc1 [UL1-012, ethyl 5-(dimethylcarbamoyl)-3,4-dihydroxy-1-(4-methoxyphenyl)-1H-pyrrole-2-carboxylate] | < 10 | 0.15 | < 10 | < 10 | < 10 | < 10 | < 10 | – | – | – | – | – | – | – | – | – | – | IC50 (pneumolysin [2]): < 0.4 µM; ciliary beating frequency (CBF) in the presence of pneumolysin (pneumolysin [3]; UL1-012 1.56 μM-25 μM, FIG. 2.A): No significant loss of the CBF; ciliary beating frequency (CBF) in the presence of bacterial lysate [4]: significantly prevented the drop of the CBF; cytotoxicity (LDH release, compound alone) [5]: does not exhibit cytotoxicity; visible adverse effects [6]: no visible adverse effects; survival ([7]; 4 mg/kg intravenously every 6 h, up to approximately 40 h after infection, p<0.05, FIG. 5): significant improvement in the survival; survival, mice surviving at endpoint ([7]; 16 mg/kg intravenously every 6 h, 72 h post infection, p<0.05, FIG. 6): 50%; disease score (signs of disease) ([7]; 16 mg/kg intravenously every 6 h, p<0.05 at 30 h, 36 h, 60 h and 66 h post-infection, FIG. 7): significant attenuation of the signs of the disease
COc1ccc(-n2c(C(=O)N(C)C)c(OC(=O)C(C)C)c(OC(=O)C(C)C)c2C(=O)N(C)C)cc1 [UL1-114, 2,5-bis(dimethylcarbamoyl)-1-(4-methoxyphenyl)-1H-pyrrole-3,4-diyl bis(2-methylpropanoate)] | 10 to 20 | – | – | – | – | – | – | 10 | 0 | 0 | 0 | 0 | 10 | 9.53 | 9.48 | 8.22 | 7.22 | –
CCOC(=O)c1c(OCOP(=O)(O)O)c(O)c(C(=O)N(C)C)n1-c1ccc(OC)cc1 [UL1-115, ethyl 5-(dimethylcarbamoyl)-4-hydroxy-1-(4-methoxyphenyl)-3-((phosphonooxy)methoxy)-1H-pyrrole-2-carboxylate] | 20 to 60 | – | – | – | – | – | – | 10 | 7.56 | 4.04 | 1.54 | 0.38 | 10 | 10.8 | 9.41 | 6.69 | 2.98 | –
CCOC(=O)c1c(OC(=O)C(C)(C)COCCOCCOP(=O)(O)O)c(OC(=O)C(C)(C)COCCOCCOP(=O)(O)O)c(C(=O)N(C)C)n1-c1ccc(OC)cc1 [UL1-117, 2-(dimethylcarbamoyl)-5-(ethoxycarbonyl)-1-(4-methoxyphenyl)-1H-pyrrole-3,4-diyl bis(2,2-dimethyl-3-(2-(2-(phosphonooxy)ethoxy)ethoxy)propanoate)] | 10 to 20 | – | – | – | – | – | – | 10 | 5.92 | 4.26 | 1.41 | 0.21 | 10 | 14.9 | 10.1 | 4.28 | 1.12 | –
CCOC(=O)c1c(O)c(O)c(C(=O)OCC)n1-c1ccc(OC)cc1 [UL2-001, diethyl 3,4-dihydroxy-1-(4-methoxyphenyl)-1H-pyrrole-2,5-dicarboxylate] | < 10 | 0.3 | 20 to 60 | < 10 | < 10 | < 10 | < 10 | – | – | – | – | – | – | – | – | – | – | ciliary beating frequency (CBF) in the presence of pneumolysin (pneumolysin [3]; UL2-001 2.00 μM, FIG. 3): No significant loss of the CBF; percentage of survival ([7]; 0.8 mg/kg intranasally every 6 h, 36 h to 60 h post-infection, p<0.05, FIG. 9): 60%
